Molecular target: T1, Bet bromodomain protein (BRD4) (Homo sapiens, UniProt O60885)
T1 construct: made in house
Assay: Bet bromodomain TR-FRET assay
Format: binding
Settings: 300 nM acetyl histone peptide substrate, results given as Group A/B/C
Method: In-Vitro Biochemical Data of bicyclic heterocyclic derivatives in time-resolved fluorescence resonance energy transfer (TR-FRET) assay.
The Bet brommodomain TR-FRET assay has been used to identify compounds that bind to bet bromodomain and prevent its interaction with acetylated histone peptides.
In the assay, optimized concentration of in-house Bet bromodomain protein (BRD4) and 300 nM of acetyl histone peptide substrate were diluted in assay buffer (50 mM HEPES, pH: 7.5, 50 mM NaCl, 500 μM CHAPS) and were added to the positive control and test control wells in a 384 well plate. Substrate control wells have 300 nM of acetyl histone peptide substrate diluted in assay buffer. Buffer blank wells were added with assay buffer. The reaction mixture was allowed for incubation at room temperature for 30 mins. Stock solutions of test compounds at 20 mM DMSO are prepared. Compounds are serially diluted and added to the test wells in 384-well polypropylene plates. The reaction mixture was further incubated for 30 mins at room temperature on a plate shaker. 2 nM of Europium labeled streptavidn and 10 nM of XL-665 labeled antibody diluted in detection buffer (50 mM HEPES, pH: 7.5, 50 mM NaCl, 500 μM CHAPS and 800 mM KF) were added to all the wells excluding the buffer blank wells. The reaction plate was incubated for additional 30 mins at room temperature on plate shaker. The plate was read in Perkin Elmer WALLAC 1420 Multilabel Counter Victor 3 (Ex: 340 nm Em: 615 and 665 nm). The amount of displacement of the peptide was measured as ratio of specific 665 nm energy transfer signal to 615 nm signals. The compounds IC50 was determined by fitting the dose response data to sigmoid curve fitting equation using Graph Pad Prism software V5.

Row | SMILES | IC50
1 | COc1cc2c(cc1-c1c(C)noc1C)cc(C(O)C(F)(F)F)c(=O)n2Cc1ccccn1 (racemic) [Compound 101, 6-(3,5-dimethylisoxazol-4-yl)-methoxy-1-(pyridin-2-ylmethyl)-3-(2,2,2-trifluoro-1-hydroxyethyl)quinolin-2(1H)-one] | ≤ 1000 nM
2 | COc1cc2c(cc1-c1c(C)noc1C)OCC(=O)N2Cc1ccncc1 [Compound 17, 7-(3,5-dimethylisoxazol-4-yl)-6-methoxy-4-(pyridin-4-ylmethyl)-2H-benzo[b][1,4]oxazin-3(4H)-one] | ≤ 1000 nM
3 | COc1cc2c(cc1-c1c(C)noc1C)OCC(=O)N2C(C)c1ccc(Cl)cc1 (single isomer, unassigned) [Compound 33, 4-(1-(4-chlorophenyl)ethyl)-7-(3,5-dimethylisoxazol-4-yl)-6-methoxy-2H-benzo[b][1,4]oxazin-3(4H)-one] | 1000 to 3000 nM
4 | COc1cc2c(cc1-c1c(C)noc1C)cc(CO)c(=O)n2Cc1ccccn1 [Compound 96, 6-(3,5-dimethylisoxazol-4-yl)-3-(hydroxymethyl)-7-methoxy-1-(pyridin-2-ylmethyl)quinolin-2(1H)-one] | ≤ 1000 nM
5 | COc1cc2c(cc1-c1c(C)noc1C)c(C1CC1)cc(=O)n2Cc1ccccn1 [Compound 55, 4-cyclopropyl-6-(3,5-dimethytisoxazol-4-yl)-7-methoxy-1-(pyridin-2-ylmethyl)quinolin-2(1H)-one] | ≤ 1000 nM
6 | COc1cc2c(cc1-c1c(C)noc1C)OCC(=O)N2Cc1ccc(Cl)cc1 [Compound 18, 4-(4-chlorobenzyl)-7-(3,5-dimethylisoxazol-4-yl)-6-methoxy-2H-benzo[b][1,4]oxazin-3(4H)-one] | ≤ 1000 nM
7 | COc1cc2c(ccc(=O)n2Cc2cnccn2)cc1-c1c(C)noc1C [Compound 8, 6-(3,5-dimethylisoxazol-4-yl)-7-methoxy-1-(pyrazin-3-ylmethyl)quinolin-2(1H)-one] | ≤ 1000 nM
8 | COc1cc2c(ccc(=O)n2Cc2ccccn2)cc1-n1c(C)nnc1C [Compound 3, 6-(3,5-dimethyl-4H-1,2,4-triazol-4-yl)-7-methoxy-1-(pyridin-2-ylmethyl)quinolin-2(1H)-one] | > 3000 nM
9 | COc1cc2c(cc1-c1c(C)noc1C)cc(C)c(=O)n2Cc1ccccn1 [Compound 50, 6-(3,5-dimethylisoxazol-4-yl)-7-methoxy-3-methyl-1-(pyridin-2-ylmethyl)quinolin-2(1H)-one] | ≤ 1000 nM
10 | COc1cc2c(ccc(=O)n2Cc2ccc(Cl)nc2)cc1-c1c(C)noc1C [Compound 67, 1-((6-chloropyridin-3-yl)methyl)-6-(3,5-dimethylisoxazol-4-yl)-7-methoxyquinolin-2(1H)-one] | ≤ 1000 nM
11 | COc1cc2c(cc1-c1c(C)noc1C)OCC(=O)N2Cc1ccc(F)cn1 [Compound 29, 7-(3,5-dimethylisoxazol-4-yl)-4-((5-fluoropyridin-2-yl)methyl)-6-methoxy-2H-benzo[b][1,4]oxazin-3(4H)-one] | ≤ 1000 nM
12 | COc1cc2c(ccc(=O)n2Cc2ccccn2)cc1-n1c(C)c[nH]c1=O [Compound 91, 7-methoxy-6-(5-methyl-2-oxo-2,3-dihydro-1H-imidazol-1-yl)-1-(pyridin-2-ylmethyl)quinolin-2(1H)-one] | > 3000 nM
13 | COc1cc2c(ccc(=O)n2Cc2ccc(F)cn2)cc1-c1c(C)noc1C [Compound 45, 6-(3,5-dimethylisoxazol-4-yl)-1-((5-fluoropyridin-2-yl)methyl)-7-methoxyquinolin-2(1H)-one] | ≤ 1000 nM
14 | COc1cc2c(cc1-c1c(C)noc1C)C(=O)C(C)(C)C(=O)N2Cc1ccccn1 [Compound 51, 6-(3,5-dimethylisoxazol-4-yl)-7-methoxy-3,3-dimethyl-1-(pyridin-2-ylmethyl)quinoline-2,4(1H,3H)-dione] | 1000 to 3000 nM
15 | COc1cc2c(cc1-c1c(C)noc1C)OCC(=O)N2Cc1ccc(C)nc1 [Compound 32, 7-(3,5-dimethylisoxazol-4-yl)-6-methoxy-4-((6-methylpyridin-3-yl)methyl)-2H-benzo[b][1,4]oxazin-3(4H)-one] | ≤ 1000 nM
16 | COc1cc2c(ccc(=O)n2Cc2ccccn2)cc1-c1cnoc1C [Compound 63, 7-methoxy-6-(5-methylisoxazol-4-yl)-1-(pyridin-2-ylmethyl)quinolin-2(1H)-one] | > 3000 nM
17 | COc1cc2c(cc1-c1c(C)noc1C)OC(C)(C)C(=O)N2Cc1cccnc1 [Compound 49, 7-(3,5-dimethylisoxazol-4-yl)-6-methoxy-2,2-dimethyl-4-(pyridin-3-ylmethyl)-2H-benzo[b][1,4]oxazin-3(4H)-one] | ≤ 1000 nM

Row | SMILES | IC50
18 | COc1cc2c(ccc(=O)n2C(C)c2cccnc2)cc1-c1c(C)noc1C (stereo not shown) [Compound 41, 6-(3,5-dimethylisoxazol-4-yl)-7-methoxy-1-(1-(pyridin-3-yl)ethyl)quinolin-2(1H)-one] | ≤ 1000 nM
19 | CCC(=O)N1CCC(CN2C(=O)COc3cc(-c4c(C)noc4C)c(OC)cc32)CC1 [Compound 90, 7-(3,5-dimethylisoxazol-4-yl)-6-methoxy-4-((1-propionylpiperidin-4-yl)methyl)-2H-benzo[b][1,4]oxazin-3(4H)-one] | ≤ 1000 nM
20 | COc1cc2c(cc1-c1c(C)noc1C)OCC(=O)N2C(C)c1ccc(Cl)cc1 (single isomer, unassigned) [Compound 34, 4-(1-(4-chlorophenyl)ethyl)-7-(3,5-dimethylisoxazol-4-yl)-6-methoxy-2H-benzo[b][1,4]oxazin-3(4H)-one] | ≤ 1000 nM
21 | COc1cc2c(cc1-c1c(C)noc1C)cc(C)c(=O)n2Cc1ccc(Cl)cn1 [Compound 58, 1-((5-chloropyridin-2-yl)methyl)-6-(3,5-dimethylisoxazol-4-yl)-7-methoxy-3-methylquinolin-2(1H)-one] | ≤ 1000 nM
22 | COc1cc2c(cc1-c1c(C)noc1C)ncc(=O)n2Cc1ccccn1 [Compound 93, 6-(3,5-dimethylisoxazol-4-yl)-7-methoxy-1-(pyridin-2-ylmethyl)quinoxalin-2(1H)-one] | ≤ 1000 nM
23 | COc1cc2c(cc1-c1c(C)noc1C)OCCN2S(=O)(=O)c1cccnc1 [Compound 12, 7-(3,5-dimethylisoxazol-4-yl)-6-methoxy-4-(pyridin-3-ylsulfonyl)-3,4-dihydro-2H-benzo[b][1,4]oxazine] | 1000 to 3000 nM
24 | CCCCOc1cc2c(ccc(=O)n2Cc2ccccn2)cc1-c1c(C)noc1C [Compound 78, 7-butoxy-6-(3,5-dimethylisoxazol-4-yl)-1-(pyridin-2-ylmethyl)quinolin-2(1H)-one] | ≤ 1000 nM
25 | COc1cc2c(ccc(=O)n2Cc2ccc(C(F)(F)F)cn2)cc1-c1c(C)noc1C [Compound 47, 6-(3,5-dimethylisoxazol-4-yl)-7-methoxy-1-((5-(trifluoromethyl)pyridin-2-yl)methyl)quinolin-2(1H)-one] | ≤ 1000 nM
26 | COc1cc2c(cc1-c1c(C)noc1C)OCCN2C(C)c1cccnc1 (stereo not shown) [Compound 7, 7-(3,5-dimethylisoxazol-4-yl)-6-methoxy-4-(1-(pyridin-3-yl)ethyl)-3,4-dihydro-2H-benzo[b][1,4]oxazine] | ≤ 1000 nM
27 | COc1ccc(CN2C(=O)COc3cc(-c4c(C)noc4C)c(OC)cc32)nc1 [Compound 30, 7-(3,5-dimethylisoxazol-4-yl)-6-methoxy-4-((5-methoxypyridin-2-yl)methyl)-2H-benzo[b][1,4]oxazin-3(4H)-one] | 1000 to 3000 nM
28 | COc1cc2c(ccc(=O)n2CCc2ccccn2)cc1-c1c(C)noc1C [Compound 42, 6-(3,5-dimethylisoxazol-4-yl)-7-methoxy-1-(2-(pyridin-2-yl)ethyl)quinolin-2(1H)-one] | 1000 to 3000 nM
29 | Cc1noc(C)c1-c1cc2ccc(=O)n(Cc3ccc(Cl)cn3)c2cc1O [Compound 73, 1-((5-chloropyridin-2-yl)methyl)-6-(3,5-dimethylisoxazol-4-yl)-7-hydroxyquinolin-2(1H)-one] | ≤ 1000 nM
30 | Cc1noc(C)c1-c1cc2ccc(=O)n(Cc3ccccn3)c2cc1OCCC1CCNCC1 [Compound 88, 6-(3,5-dimethylisoxazol-4-yl)-7-(2-(piperidin-4-yl)ethoxy)-1-(pyridin-2-ylmethyl)quinolin-2(1H)-one] | 1000 to 3000 nM
31 | COc1cc2c(cc1-c1c(C)noc1C)OCC(=O)N2CCc1ccccn1 [Compound 35, 7-(3,5-dimethylisoxazol-4-yl)-6-methoxy-4-(2-(pyridin-2-yl)ethyl)-2H-benzo[b][1,4]oxazin-3(4H)-one] | 1000 to 3000 nM
32 | COc1cc2c(cc1-c1c(C)noc1C)c(C)cc(=O)n2Cc1ccccn1 [Compound 53, 6-(3,5-dimethylisoxazol-4-yl)-7-methoxy-4-methyl-1-(pyridin-2-ylmethyl)quinolin-2(1H)-one] | 1000 to 3000 nM
33 | COc1cc2c(ccc(=O)n2Cc2ccccn2)cc1-c1c(C)noc1C [Compound 46, 6-(3,5-dimethylisoxazol-4-yl)-7-methoxy-1-(pyridin-2-ylmethyl)quinolin-2(1H)-one] | ≤ 1000 nM
34 | COc1cc2c(cc1-c1c(C)noc1C)OCC(=O)N2CC1CCOCC1 [Compound 23, 7-(3,5-dimethytisoxazol-4-yl)-6-methoxy-4-((tetrahydro-2H-pyran-4-yl)methyl)-2H-benzo[b][1,4]oxazin-3(4H)-one] | ≤ 1000 nM
